Test results published in the METLIN SMRT retention time set (Domingo-Almenara et al. 2019).

Assay: gradient 5% acetonitrile 3 min, to 50% in 2 min, to 85% in 15 min, held 3 min, 100 µL/min
Conditions: column: Zorbax Extend-C18 2.1 x 50 mm; eluents: water / acetonitrile, 0.1% formic acid
Method in brief: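 Using water and acetonitrile that each contained 0.1% formic acid, mixtures of ~100 pure standards were separated at 100 μL/min on a Zorbax Extend-C18 column (2.1 × 50 mm, 1.8 μm). The HPLC fed a quadrupole time-of-flight mass spectrometer working in positive and negative ionization mode, with dead and dwell volumes of 40 μL and 900 μL. Data were acquired over 3 months. Retention time was read from computationally picked adduct peaks after manual inspection of each.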

First: O=C(Nc1ccc(OCc2nnc(-c3ccc(Cl)cc3)o2)cc1)c1cccnc1
Second: COc1ccc2c(=O)c(Oc3ccc(C(=O)Nc4cccnc4)cc3)coc2c1
The RP-LC retention time of the first is higher: 816 s for the first, 605 s for the second.

First: CCc1ccc(C2=C(C)C(N3CCCN(C(=O)NC(C)CC)CC3)=NS2(=O)=O)cc1 (centres undefined)
Second: CC1=C(c2ccccc2)S(=O)(=O)N=C1N1CCCN(C(=O)c2cccc(Cl)c2)CC1
The RP-LC retention time of the first is higher: 866 s for the first, 862 s for the second.

Compared with `CCOC(=O)COC(=O)c1cn(-c2ccc(C)cc2)c(=O)c2ccccc12`, `O=C(Cn1c(=O)cc(C(=O)N2CCCC2)c2ccccc21)Nc1cccc(Br)c1` is higher in RP-LC retention time: 718 s for the first, 780 s for the second.

Going from `COc1ccc(NC(=O)NCC(c2cccnc2)c2cn(C)c3ccccc23)cc1` (centres undefined) to `CCOc1ccccc1NC(=O)NCC(c1cccnc1)c1cn(C)c2ccccc12` (centres undefined), the RP-LC retention time rises from 678 s to 753 s.

First: Cc1ccc(N2CCC(NC(=O)NC(C)C)C2=O)cc1C (centres undefined)
Second: Cc1ccc(NC(=O)Cn2nc3n(c2=O)CCCCC3)cc1C
The RP-LC retention time of the first is higher: 740 s for the first, 717 s for the second.

Compared with `COc1ccc(-c2csc(NC(=O)c3sc(C)nc3C)n2)cc1`, `CCc1nnc(-c2cc(C)n(CC(=O)Nc3ccc(OC)cc3)c2C)o1` is lower in RP-LC retention time: 886 s for the first, 753 s for the second.

First: CCc1ccccc1NS(=O)(=O)c1cc(-c2[nH]ncc2C(=O)N2CCCCC2)oc1C
Second: O=C(Nc1ccccc1F)C1CCc2sc(C(=O)N3CCCC3)cc2C1 (centres undefined)
The RP-LC retention time of the first is higher: 799 s for the first, 761 s for the second.

Compared with `O=c1[nH]c(-c2ccccc2)nc2sc(-c3ccccc3)cc12`, `CCC(C(=O)Nc1c(-c2ccccc2)nc2cc(C)ccn12)c1ccccc1` (centres undefined) is lower in RP-LC retention time: 980 s for the first, 939 s for the second.

Going from `CC1CCN(c2nc(NCCN3CCOCC3)nc(N3CC4CC(C3)c3cccc(=O)n3C4)n2)CC1` (centres undefined) to `COc1ccc(N2CCN(C(=O)c3[nH]c(C)c(S(=O)(=O)N4CCOCC4)c3C)CC2)cc1`, the RP-LC retention time rises from 555 s to 703 s.

Going from `COCc1cn(C2CN(C(=O)C3(c4ccccc4)CC3)C2)nn1` to `O=C(CC(F)(F)F)N1CCC(c2noc(-c3ccccc3)n2)C1` (centres undefined), the RP-LC retention time rises from 688 s to 870 s.

Compared with `CC(C)N1C(=O)c2cccnc2Sc2cc(NC(=O)COc3ccc(F)cc3)ccc21`, `O=C(NCCc1c[nH]c2ccccc12)c1cc2occc2c(Nc2ccc(F)cc2)n1` is higher in RP-LC retention time: 894 s for the first, 1020 s for the second.

Going from `Cc1cnn(Cc2c(C(=O)N3C[C@@H](C(N)=O)[C@H](c4n[nH]c(C)n4)C3)noc2C)c1` to `CCOC(=O)c1noc2nc(C)nc(Nc3cccc(OC)c3)c12`, the RP-LC retention time rises from 590 s to 801 s.

Compared with `Cc1cc(C)n2c(Nc3ccc(Cl)cc3)c(-c3ccc(O)cc3)nc2n1`, `Cc1cc(C)c(S(=O)(=O)Nc2cccc(-c3cn4ccccc4n3)c2)c(C)c1` is lower in RP-LC retention time: 707 s for the first, 667 s for the second.

Compared with `COc1ccccc1-c1nnc(-c2ccc(Cl)c(S(=O)(=O)N3CCOCC3)c2)o1`, `Cc1ccccc1NC(=O)Cn1nc(C(=O)N2CCOCC2)c2ccccc21` is lower in RP-LC retention time: 897 s for the first, 735 s for the second.

Compared with `COc1ccc(CNC(=O)C2(C)CCN(C(=O)Nc3ccccc3C(F)(F)F)CC2)cc1`, `COc1ccc(COC(=O)C2=CN(Cc3ccc(OC)cc3)S(=O)(=O)N=C2C)cc1` is higher in RP-LC retention time: 834 s for the first, 923 s for the second.

Going from `Cc1ncc2c(n1)C[C@@H]1CC[C@H]2N1S(=O)(=O)c1ccccc1C` to `CC(C)(C)c1ccc(S(=O)(=O)N2CCCC(CNC(=O)c3ccccc3)C2)cc1` (centres undefined), the RP-LC retention time rises from 750 s to 1080 s.

Going from `COc1ccccc1CCNC(=O)CCc1csc(NC(=O)NC2CCCCC2)n1` to `O=C(NCCC1=CCCCC1)C1CCCN(c2nccnc2Sc2ccccc2)C1` (centres undefined), the RP-LC retention time rises from 786 s to 1170 s.

Going from `CCOc1ccc(NC(=O)c2c(C)sc3ncnc(N4CCCC(C)C4)c23)cc1` (centres undefined) to `CCc1ccc(NC(=O)C2Cc3cc(S(=O)(=O)N4CCCCC4)ccc3N2C(C)=O)cc1` (centres undefined), the RP-LC retention time falls from 1200 s to 864 s.

Compared with `O=C(Nc1nnc(-c2ccsc2)o1)c1ccc2nsnc2c1`, `CCc1nnc(-c2cc(S(=O)(=O)NCCc3ccc(S(N)(=O)=O)cc3)cn2C)o1` is lower in RP-LC retention time: 698 s for the first, 676 s for the second.

Compared with `O=C(CCn1c(=O)sc2ccccc21)N(Cc1ccccc1)Cc1ccccc1`, `O=C(NC1CCN(c2cc(-c3ccccc3)[nH]n2)C1)c1ccccc1F` (centres undefined) is lower in RP-LC retention time: 1040 s for the first, 756 s for the second.

Compared with `CCn1ccc2cc(S(=O)(=O)N3CCCC(C(=O)NCc4cc(OC)ccc4OC)C3)ccc21` (centres undefined), `COc1ccc2c(c1)C(C(=O)N(Cc1ccc(N(C)C)cc1)c1ccc(C(C)C)cc1)CCC2` (centres undefined) is higher in RP-LC retention time: 988 s for the first, 1260 s for the second.

Going from `CC(=O)N(CC(=O)N1CCc2sccc2C1COc1ccc(F)cc1)CC1CCCO1` (centres undefined) to `Cn1c(=O)c2c(ncn2CC(=O)N2CCCn3nc(-c4ccc(C(F)(F)F)cc4)cc3C2)n(C)c1=O`, the RP-LC retention time falls from 813 s to 763 s.
